Test results taken from US10214507B2, “Carbazole-containing amides, carbamates, and ureas as cryptochrome modulators” (Reset Therapeutics, Inc., priority 2014, dated 2019).

Tests used:
[1] = tested on: core clock gene mRNAs in mouse liver; test: Core clock gene mRNAs in liver after a single dose at peak or nadir of Cry1 expression; assay type: in vivo; conditions: single dose 50 mg/kg, liver 7.5 hours later
Experimental: For compounds that interact directly with the core clock mechanism, the time of dosing may be critical for maximizing their effects. […] The former (ZTO) is coincident with the peak of Cry1 and Bmal1 protein in mouse liver and the latter (ZT10) corresponds to the approximate nadir of Cry1 and Bmal1. Liver tissue was taken 7.5 hours later for each, and the samples were examined for core clock gene mRNAs by RT-qPCR.

[2] = tested on: core clock and gluconeogenic gene mRNAs in liver of C57Bl/6J DIO mice; test: 24 hour gene expression study, liver mRNA by RT-qPCR, C57Bl/6J DIO mice; assay type: in vivo, mouse; conditions: 50 mg/kg BID PO
Description: Male C57Bl/6J DIO mice were purchased at 17 weeks of age (The Jackson Laboratory, Sacramento, Calif.) and acclimated for a 2 week period before being used for the experiment. Overall group size was 15 per treatment, divided into 5 time-points to give a final group size of 3 mice.
In total, each mouse received 5 doses of compound over the course of the experiment. Mice were weighed and randomly assigned to each treatment based on weight the evening before the commencement of the study. Beginning on Day 3 at 3:00 PM, a group of animals from the vehicle and Compound 72-treated groups were euthanized using CO2 asphyxiation, 50 mg of liver, epididymal fat, and skeletal muscle, respectively, were excised and placed in tube containing 500 μl of RNALater. This procedure took place for the remainder of the time-point groups at their given harvest times. Plasma samples were also taken for each animal and frozen, to be used for later measurement of compound levels.
E.Z.N.A.® HP Total RNA Isolation Kits (R6812-01 and the protocol described in the Manual, Revised 2010) were utilized to prepare and isolate RNA from the liver samples. To prepare the RNA samples, 10-30 mg of sample was removed from RNA-Later and placed in a 1.5 ml microfuge tube. GTC lysis buffer (700 μl) was added to the tissue, which was homogenized with a rotor-stator homogenizer (e.g. Tissue-Tearor, Model #985370 BioSpec Products with 4.5 mm probe, Cat. #985370-04), and then centrifuged at full speed (>13,000×g) for 5 minutes. The cleared supernatant was transferred by pipetting to a DNA Clearance Column Pre-inserted in a 2 mL Collection Tube. The assembled column was centrifuged at 13,000×g for 1 minute, and the flow-through was saved. An equal volume (700 μl) of 70% ethanol was added to the lysate and mixed. The sample was then applied to a HiBind RNA spin column placed into a 2 ml collection tube, which was centrifuged at 10,000×g for 60 seconds at room temperature. RNA Wash Buffer I (250 μl) was added by pipetting directly onto a new HiBind RNA column inserted in a 2 ml collection tube. The assembled column was centrifuged at 10,000×g for 60 seconds. The RNA column was placed into a new 2 ml collection tube. DNase I stock solution is pipetted (75 μl) directly onto the surface of the HiBind RNA resin in each column (Using DNAse Digestion with RNase Free DNase Set (E1091): for each HiBind RNA column, the DNase I stock solution was prepared as followed: E.Z.N.A.® DNase I Digestion Buffer 73.5μl, RNase Free DNase I (20 Kunitz/μl) 1.5 μl=Total Volume 75 μl.). The column with bound RNA was incubated at room temperature (25-30° C.) for 15 minutes. RNA Wash Buffer I (500 μl) was added to the column and placed on a bench top for 2 minutes. After centrifuging at 10,000×g for 60 seconds, discarding the flow-through, 500 μl of RNA Wash Buffer II was added and centrifuged at 10,000×g for 60 seconds. Another 500 μl of RNA Wash Buffer II was added and the column assembly was centrifuged at 10,000×g for 60 seconds. The column was centrifuged for 2 minutes at maximum speed to completely dry the HiBind matrix. The column was placed in a clean 1.5 ml microcentrifuge tube and 40-70 μl of molecular biology grade water is added. […]
RediPlate 96 RiboGreen RNA Quantification Kit (Invitrogen) RediPlate standard curve was prepared by transferring 20 μl reconstituted RNA standard to a RediPlate well reconstituted in 180 μl RediPlate TE buffer. […]

[3] = tested on: Dbp mRNA in whole blood of db/db mice; test: Dbp mRNA in whole blood of db/db mice after three daily doses; assay type: in vivo, mouse; conditions: 100 mg/kg PO once daily 3 days, ZT7.5
Experimental: For whole blood RNA studies, male db/db mice (9 weeks of age, The Jackson Laboratory, Bar Harbor, Me.) were used for the experiment with n=8 mice for each experimental group. […] On the final day at ZT7.5 (2:30 pm), animals were euthanized using CO2 asphyxiation, and the blood collected from the heart via cardiac puncture. The blood was placed in RNALater solution to 1.5 ml total volume. Total RNA was prepared using an Ambion Mouse RiboPure Blood RNA Isolation Kit AM1951 as follows. Samples were centrifuged for 3 minutes, discarding the supernatant. Two ml of lysis solution was added and vortexed, transferred to a 15 ml tube followed by the addition of […]. Lysis buffer was added to a total volume of 3.8 ml and vortexed. The sample mixture was extracted with 1.5 ml Acid Phenol: Chloroform and the aqueous phase was recovered. After adding 0.5 volumes of 100% ethanol and vortexing, the samples were passed through a filter column provided in the kit and washed with 750 microliters of wash buffer 1. The filter was washed with 2 passes of 750 microliters wash buffer ⅔ and dried. RNA was eluted in 200 microliters of molecular biology grade water (RNase-free).
The levels of core clock gene mRNAs in whole blood may provide a non-invasive method of determining effects of compounds in treated subjects. […]

**Q.** With O=C1NCCN1CC(O)Cn1c2ccc(F)cc2c2cc(F)ccc21 (stereo not shown) [Compound 72, 1-(3-(3,6-difluoro-9H-carbazol-9-yl)-2-hydroxypropyl)imidazolidin-2-one] as the compound, how does the “impact on clock mRNAs, dosing at peak (ZT0) vs nadir (ZT10)” value [1] read?
**A.** The value was “greater relative impact on the clock mRNAs at the peak compared to the nadir”.

**Q.** And the “Cry2 mRNA daytime peak in liver” value [2]?
**A.** Its value is “strongly attenuated”.

**Q.** And the “Bmal1 mRNA in liver” value ([2]; at ZT8 and 32 hours after original ZT0)?
**A.** The value was “substantially increased”.

**Q.** And the “Cry1 mRNA in liver” value ([2]; peak of expression in dark period)?
**A.** Its value is “suppressed”.

**Q.** And the “Per2 mRNA in liver over 24 hours” value ([2]; vs vehicle)?
**A.** The value was “suppressed”.

**Q.** And the “circadian pattern of mRNAs for gluconeogenic genes Pck1 and G6Pc” value ([2]; liver, relative to vehicle)?
**A.** The value was “substantially altered”.

**Q.** And the “Dbp gene expression in whole blood” value [3]?
**A.** The value was “statistically significant suppression”.
